Test results: the supplement of paper PMC10733146

Columns and labels:
Assay in all cases: viability relative to DMSO control (fraction); higher = less drug effect (more viable cells)
Settings in all cases: 48 h
[1] = compound: c1cn2cc(-c3ccc4cn[nH]c4c3)nc(Nc3ccc(N4CCOCC4)cc3)c2n1 [Entospletinib]
Procedure, shortened: (§1)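 In 384-well plates with compounds pre-plated at five concentrations (one well per concentration), primary mononuclear tumour cells were plated at 4 × 10^4 cells per well. The cells came from blood or bone marrow by Ficoll isolation or from processed lymph node, and were used fresh or cryopreserved. Culture ran for 48 h at 37 °C and 5% CO2 in RPMI-1640 containing penicillin/streptomycin, L-glutamine and human serum. Viability was read as CellTiter-Glo luminescence, normalised to the median of 16 inner DMSO wells.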

[2] = compound: O=C(/C=C\n1cnc(-c2cc(C(F)(F)F)cc(C(F)(F)F)c2)n1)NNc1cnccn1 [Selinexor]
Procedure, shortened: as §1

[3] = compound: C[C@H](NC(=O)CCC(F)(F)F)C(=O)N[C@@H]1C(=O)N(CCO)c2ncccc2-c2ccccc21
Procedure, shortened: as §1

[4] = compound: C[C@H]1C[C@@H](n2c(Nc3ccc(OC(F)(F)F)cc3)nc3cc(CCC(=O)O)ccc32)CC(C)(C)C1
Procedure, shortened: as §1

[5] = compound: CCc1ccc(/C=C2/SC(=S)NC2=O)cc1
Procedure, shortened: as §1

[6] = compound: O=C(Nc1ccc2[nH]nc(-c3ccncc3)c2c1)[C@@H]1CCN(CC(=O)N2CCN(c3ccc(-c4ncccn4)cc3)CC2)C1
Procedure, shortened: as §1

[7] = compound: C[C@H](Nc1ncnc2nc[nH]c12)c1cc2cccc(Cl)c2c(=O)n1-c1ccccc1 [Duvelisib]
Procedure, shortened: as §1

[8] = compound: CC[C@]1(O)C[C@@H]2CN(CCc3c([nH]c4ccccc34)[C@@](C(=O)OC)(c3cc4c(cc3OC)N(C)[C@H]3[C@@](O)(C(N)=O)[C@H](O)[C@]5(CC)C=CCN6CC[C@]43[C@@H]65)C2)C1 [Vindesine]
Procedure, shortened: as §1

[9] = compound: COc1cc([C@@H]2c3cc4c(cc3[C@@H](O[C@@H]3O[C@@H]5CO[C@@H](C)O[C@H]5[C@H](O)[C@H]3O)[C@H]3COC(=O)[C@H]23)OCO4)cc(OC)c1O [Etoposide]
Procedure, shortened: as §1

[10] = compound: CC[C@H](CO)Nc1nc(NCc2ccccc2)c2ncn(C(C)C)c2n1 [Roscovitine]
Procedure, shortened: as §1

[11] = compound: CC(=O)c1c(C)c2cnc(Nc3ccc(N4CCNCC4)cn3)nc2n(C2CCCC2)c1=O [Palbociclib]
Procedure, shortened: as §1

[12] = compound: CO[C@H]1C[C@@H]2CC[C@@H](C)[C@@](O)(O2)C(=O)C(=O)N2CCCC[C@H]2C(=O)O[C@H]([C@H](C)C[C@@H]2CC[C@@H](OCCO)[C@H](OC)C2)CC(=O)[C@H](C)/C=C(\C)[C@@H](O)[C@@H](OC)C(=O)[C@H](C)C[C@H](C)/C=C/C=C/C=C/1C [Everolimus]
Procedure, shortened: as §1

[13] = compound: CC1(C)CCC(c2ccc(Cl)cc2)=C(CN2CCN(c3ccc(C(=O)NS(=O)(=O)c4ccc(N[C@H](CCN5CCOCC5)CSc5ccccc5)c(S(=O)(=O)C(F)(F)F)c4)cc3)CC2)C1 [Navitoclax]
Procedure, shortened: as §1

## primary B-PLL patient cells (S016)
[1]; 0.024 µM
  viability: 0.927
[1]; 0.12 µM
  viability: 0.919
[1]; 0.6 µM
  viability: 0.934
[1]; 3 µM
  viability: 0.947
[1]; 15 µM
  viability: 0.864
[2]; 0.008 µM
  viability: 0.949
[2]; 0.04 µM
  viability: 0.929
[2]; 0.2 µM
  viability: 0.822
[2]; 1 µM
  viability: 0.847
[2]; 5 µM
  viability: 0.67
[3]; 0.016 µM
  viability: 1.29
[3]; 0.08 µM
  viability: 1.24
[3]; 0.4 µM
  viability: 1.09
[3]; 2 µM
  viability: 1.08
[3]; 10 µM
  viability: 0.949
[4]; 0.024 µM
  viability: 0.932
[4]; 0.12 µM
  viability: 1.22
[4]; 0.6 µM
  viability: 1.08
[4]; 3 µM
  viability: 0.967
[4]; 15 µM
  viability: 1.03
[5]; 0.024 µM
  viability: 0.982
[5]; 0.12 µM
  viability: 0.922
[5]; 0.6 µM
  viability: 1.1
[5]; 3 µM
  viability: 0.971
[5]; 15 µM
  viability: 0.963
[6]; 0.008 µM
  viability: 1.02
[6]; 0.04 µM
  viability: 0.919
[6]; 0.2 µM
  viability: 0.953
[6]; 1 µM
  viability: 0.94
[6]; 5 µM
  viability: 0.869
[7]; 0.0016 µM
  viability: 0.788
[7]; 0.008 µM
  viability: 0.821
[7]; 0.04 µM
  viability: 0.708
[7]; 0.2 µM
  viability: 0.675
[7]; 1 µM
  viability: 0.674
[8]; 0.016 µM
  viability: 0.255
[8]; 0.08 µM
  viability: 0.199
[8]; 0.4 µM
  viability: 0.222
[8]; 2 µM
  viability: 0.164
[8]; 10 µM
  viability: 0.0777
[9]; 0.032 µM
  viability: 1.14
[9]; 0.16 µM
  viability: 0.886
[9]; 0.8 µM
  viability: 0.762
[9]; 4 µM
  viability: 0.362
[9]; 20 µM
  viability: 0.0933
[10]; 0.032 µM
  viability: 0.927
[10]; 0.16 µM
  viability: 1.05
[10]; 0.8 µM
  viability: 1.02
[10]; 4 µM
  viability: 1.23
[10]; 20 µM
  viability: 1.09
[11]; 0.024 µM
  viability: 0.982
[11]; 0.12 µM
  viability: 0.886
[11]; 0.6 µM
  viability: 0.89
[11]; 3 µM
  viability: 0.625
[11]; 15 µM
  viability: 0.457
[12]; 0.0032 µM
  viability: 0.735
[12]; 0.016 µM
  viability: 0.647
[12]; 0.08 µM
  viability: 0.665
[12]; 0.4 µM
  viability: 0.659
[12]; 2 µM
  viability: 0.697
[13]; 0.0032 µM
  viability: 1.16
[13]; 0.016 µM
  viability: 1.14
[13]; 0.08 µM
  viability: 0.767
[13]; 0.4 µM
  viability: 0.158
[13]; 2 µM
  viability: 0.0503

## primary BL patient cells (S005)
[1]; 0.024 µM
  viability: 1.01
[1]; 0.12 µM
  viability: 0.996
[1]; 0.6 µM
  viability: 1.06
[1]; 3 µM
  viability: 1.08
[1]; 15 µM
  viability: 0.986
[2]; 0.008 µM
  viability: 0.977
[2]; 0.04 µM
  viability: 0.923
[2]; 0.2 µM
  viability: 0.928
[2]; 1 µM
  viability: 0.81
[2]; 5 µM
  viability: 0.743
[3]; 0.016 µM
  viability: 1.03
[3]; 0.08 µM
  viability: 0.975
[3]; 0.4 µM
  viability: 0.916
[3]; 2 µM
  viability: 0.918
[3]; 10 µM
  viability: 0.695
[4]; 0.024 µM
  viability: 1.38
[4]; 0.12 µM
  viability: 1.01
[4]; 0.6 µM
  viability: 0.993
[4]; 3 µM
  viability: 1.45
[4]; 15 µM
  viability: 0.977
[5]; 0.024 µM
  viability: 0.918
[5]; 0.12 µM
  viability: 0.926
[5]; 0.6 µM
  viability: 1.06
[5]; 3 µM
  viability: 0.961
[5]; 15 µM
  viability: 0.974
[6]; 0.008 µM
  viability: 1.02
[6]; 0.04 µM
  viability: 1.08
[6]; 0.2 µM
  viability: 1.02
[6]; 1 µM
  viability: 0.993
[6]; 5 µM
  viability: 0.935
[7]; 0.0016 µM
  viability: 1.01
[7]; 0.008 µM
  viability: 1.03
[7]; 0.04 µM
  viability: 0.93
[7]; 0.2 µM
  viability: 0.981
[7]; 1 µM
  viability: 0.831
[8]; 0.016 µM
  viability: 0.812
[8]; 0.08 µM
  viability: 0.859
[8]; 0.4 µM
  viability: 0.903
[8]; 2 µM
  viability: 0.775
[8]; 10 µM
  viability: 0.892
[9]; 0.032 µM
  viability: 1
[9]; 0.16 µM
  viability: 1.22
[9]; 0.8 µM
  viability: 1.3
[9]; 4 µM
  viability: 1.05
[9]; 20 µM
  viability: 1.12
[10]; 0.032 µM
  viability: 1.01
[10]; 0.16 µM
  viability: 1.56
[10]; 0.8 µM
  viability: 1.01
[10]; 4 µM
  viability: 1.6
[10]; 20 µM
  viability: 1.37
[11]; 0.024 µM
  viability: 0.948
[11]; 0.12 µM
  viability: 1.16
[11]; 0.6 µM
  viability: 0.873
[11]; 3 µM
  viability: 1.06
[11]; 15 µM
  viability: 0.825
[12]; 0.0032 µM
  viability: 0.819
[12]; 0.016 µM
  viability: 0.837
[12]; 0.08 µM
  viability: 0.787
[12]; 0.4 µM
  viability: 0.848
[12]; 2 µM
  viability: 0.8
[13]; 0.0032 µM
  viability: 1.1
[13]; 0.016 µM
  viability: 0.999
[13]; 0.08 µM
  viability: 1.11
[13]; 0.4 µM
  viability: 1.06
[13]; 2 µM
  viability: 1.06
